Source: patent publication US12507721B2, “Ready-to-use parenteral nutrition formulation” (BAXTER INTERNATIONAL INC., priority 2021, dated 2025)

How the values were obtained:
Format in all cases: physicochemical
[1] = Stability of vitamin B12 during sterilization at different C0; conditions: Batch 3 (5% lipid emulsion); C0=120 min
Experimental: Therefore, in a first step, exemplary glucose solutions and lipid emulsions each containing vitamin B12 were submitted to different amounts of C0 during the sterilization step to analyze the impact of C0 on the stability of vitamin B12. Several C0 values were targeted and a wide range, from 20 min to 120 min, was screened to understand the correlation between C0 and the degradation of vitamin B12 in different media. Bags of lipid emulsion were produced, wherein the 5% olive-based emulsion contained vitamin B12 (cyanocobalamin form) at a concentration of 1 dd in 25 mL and, in one case, EDTA in a concentration of 0.1% w/v of the final emulsion (see Table 6). […] The heat sensitivity of the vitamin was assessed through the analysis of the respective degradation profile. […]
The solutions were analyzed unsterilized and sterilized for each cycle. […]
Bags were then analyzed at the respective points in time to evaluate the impact on the degradation of vitamin B12. The quantitative determination of vitamin B12 in the form of cyano- and hydroxocobalamins was done by Ultra Performance Liquid Chromatography (UPLC), which separates components of a solution by partitioning of the analytes between a mobile liquid phase and a […] (reversed phase mode). […]

[2] = Vitamin B12 stability in dedicated formulations (Batches 1 to 4); conditions: aqueous formulation, optimized conditions (oxygen content, pH, sterilization method)
Experimental: Table 16 provides for the various batches which were prepared for testing the stability of vitamin B12 in each setting.
For Batches 1 to 3, concentrated emulsions (40%) were diluted with a factor of 8. The vitamin bulk was used to dilute the emulsion from 40% to 5%. The pH was adjusted at 5.9 with a citrate buffer for Batch 1 and a phosphate buffer for Batch 2. An adjustment to pH 6.5 was performed for Batch 3 with HCl. The final volume was provided by adding Milli-Q water. In case of Batches 2 and 3, EDTA and PVP K17 were added before filling up to the final volume. The emulsions were filtered with a 4.5 μm filter before filling. Flushing of the solutions using N2 was performed before starting the filling of each batch. The Batches were manufactured under exclusion of light and oxygen. The dissolved oxygen was measured at the beginning of the filling to ensure it remains <1.0 ppm. The headspace volume was set as small as possible (≤10 mL) and the filling volume limits was 100 mL per monobag, ±2 mL. To avoid any risk of vitamin degradation, an aluminum overpouch was used to protect each monobag. An oxygen absorber was placed between primary bag and overpouch. Seals were inspected before sterilization rack loading. Four samples per Batch were kept unsterilized for Batches 1 through 4. […]

[3] = Impact of pH on the stability of vitamin B12; conditions: 6 months at 40° C.

degradation of the total sum of vitamin B12 [1]: about 35%
stability of vitamin B12 in Batch 4 [2]: remains stable up to T7M40 °C
vitamin B12 (cyanocobalamin plus hydroxocobalamin) recovered ([3]; Batch 1: 5% olive oil emulsion, pH 7.0, C0=40 min): 53.8%
vitamin B12 (cyanocobalamin plus hydroxocobalamin) recovered ([3]; Batch 2: 5% olive oil emulsion, pH 5.9, C0=80 min): 138%
Substance: cobalamin [Batch B12]
